Measured values reported in ChEMBL document CHEMBL5291721, “A preclinical secondary pharmacology resource illuminates target-adverse drug reaction associations of marketed drugs” (Nat Commun, 2023).

What was measured:
[1] = target: T1, Amine oxidase [flavin-containing] A (Homo sapiens, UniProt P21397); assay type: functional
T1 sequence (P21397 whole entry): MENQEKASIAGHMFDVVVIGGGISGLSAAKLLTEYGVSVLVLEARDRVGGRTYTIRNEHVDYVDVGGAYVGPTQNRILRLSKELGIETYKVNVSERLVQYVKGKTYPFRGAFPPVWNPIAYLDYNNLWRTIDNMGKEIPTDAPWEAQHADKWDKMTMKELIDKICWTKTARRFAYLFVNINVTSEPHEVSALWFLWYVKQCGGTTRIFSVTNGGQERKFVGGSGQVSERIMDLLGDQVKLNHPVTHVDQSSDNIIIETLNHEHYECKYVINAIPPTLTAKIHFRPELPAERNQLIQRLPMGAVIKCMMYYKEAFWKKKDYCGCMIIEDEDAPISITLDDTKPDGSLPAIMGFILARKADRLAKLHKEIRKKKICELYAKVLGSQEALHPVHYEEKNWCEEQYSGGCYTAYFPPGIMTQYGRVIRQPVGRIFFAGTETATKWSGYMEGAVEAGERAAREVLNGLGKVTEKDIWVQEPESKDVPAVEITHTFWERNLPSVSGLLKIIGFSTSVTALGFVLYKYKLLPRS

[2] = target: T2, Alpha-2A adrenergic receptor (Homo sapiens, UniProt P08913); assay type: functional, cell-based
T2 sequence (P08913 whole entry): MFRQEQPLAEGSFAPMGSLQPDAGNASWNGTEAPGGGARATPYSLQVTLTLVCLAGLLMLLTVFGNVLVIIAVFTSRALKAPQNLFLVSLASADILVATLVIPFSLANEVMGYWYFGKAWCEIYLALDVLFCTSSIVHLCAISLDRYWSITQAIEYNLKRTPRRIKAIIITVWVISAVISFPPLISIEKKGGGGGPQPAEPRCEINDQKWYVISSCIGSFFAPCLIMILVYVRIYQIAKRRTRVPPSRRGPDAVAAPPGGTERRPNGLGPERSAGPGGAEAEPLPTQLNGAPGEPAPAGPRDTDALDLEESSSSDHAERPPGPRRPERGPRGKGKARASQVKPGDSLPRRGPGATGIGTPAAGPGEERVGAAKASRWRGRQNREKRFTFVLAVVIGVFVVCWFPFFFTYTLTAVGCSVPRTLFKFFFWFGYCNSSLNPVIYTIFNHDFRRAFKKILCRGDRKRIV

[3] = target: Sodium-dependent dopamine transporter (Homo sapiens, UniProt Q01959)
[4] = target: Beta-1 adrenergic receptor (Homo sapiens, UniProt P08588); assay type: functional
[5] = target: T3, Equilibrative nucleoside transporter 1 (Homo sapiens, UniProt Q99808)
T3 sequence (Q99808 whole entry): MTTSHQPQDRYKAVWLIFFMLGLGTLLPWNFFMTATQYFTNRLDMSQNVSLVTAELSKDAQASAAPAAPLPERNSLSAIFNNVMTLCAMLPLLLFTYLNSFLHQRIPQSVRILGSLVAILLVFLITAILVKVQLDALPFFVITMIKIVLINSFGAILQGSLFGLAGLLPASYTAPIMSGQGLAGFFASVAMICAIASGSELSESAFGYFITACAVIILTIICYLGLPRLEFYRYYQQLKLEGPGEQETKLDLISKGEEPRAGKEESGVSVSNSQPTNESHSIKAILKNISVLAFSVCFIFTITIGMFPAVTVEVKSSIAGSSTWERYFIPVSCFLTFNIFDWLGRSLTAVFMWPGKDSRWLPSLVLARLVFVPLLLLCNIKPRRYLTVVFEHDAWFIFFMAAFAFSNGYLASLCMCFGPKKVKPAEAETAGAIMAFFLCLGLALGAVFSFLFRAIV

[6] = target: T4, Type-1 angiotensin II receptor (Homo sapiens, UniProt P30556)
T4 sequence (P30556 whole entry): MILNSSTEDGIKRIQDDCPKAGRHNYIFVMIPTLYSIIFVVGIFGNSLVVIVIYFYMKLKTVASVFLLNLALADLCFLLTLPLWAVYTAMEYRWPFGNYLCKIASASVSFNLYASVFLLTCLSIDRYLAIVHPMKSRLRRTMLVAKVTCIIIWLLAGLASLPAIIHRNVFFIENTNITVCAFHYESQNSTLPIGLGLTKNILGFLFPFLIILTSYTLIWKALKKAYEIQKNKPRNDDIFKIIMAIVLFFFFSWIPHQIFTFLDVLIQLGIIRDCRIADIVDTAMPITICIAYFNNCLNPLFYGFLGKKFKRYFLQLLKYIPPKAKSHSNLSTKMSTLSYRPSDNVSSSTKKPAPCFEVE

[7] = target: T5, 5-hydroxytryptamine receptor 1A (Homo sapiens, UniProt P08908); assay type: functional, cell-based
T5 sequence (P08908 whole entry): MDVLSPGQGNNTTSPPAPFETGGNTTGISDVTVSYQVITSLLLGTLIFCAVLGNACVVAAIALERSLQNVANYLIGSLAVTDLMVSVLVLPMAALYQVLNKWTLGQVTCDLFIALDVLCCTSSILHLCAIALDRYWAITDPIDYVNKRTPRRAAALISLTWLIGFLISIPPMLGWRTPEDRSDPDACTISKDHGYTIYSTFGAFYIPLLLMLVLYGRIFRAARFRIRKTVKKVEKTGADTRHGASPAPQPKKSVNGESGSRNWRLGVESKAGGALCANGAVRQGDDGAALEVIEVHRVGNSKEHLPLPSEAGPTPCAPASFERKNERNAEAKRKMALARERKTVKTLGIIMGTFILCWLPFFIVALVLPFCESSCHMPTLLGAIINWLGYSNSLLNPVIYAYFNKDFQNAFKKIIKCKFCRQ

[8] = target: Beta-2 adrenergic receptor (Homo sapiens, UniProt P07550); assay type: functional, cell-based
Further: assay procedure not described here.

Beta-1 adrenergic receptor, sequence (P08588 whole entry): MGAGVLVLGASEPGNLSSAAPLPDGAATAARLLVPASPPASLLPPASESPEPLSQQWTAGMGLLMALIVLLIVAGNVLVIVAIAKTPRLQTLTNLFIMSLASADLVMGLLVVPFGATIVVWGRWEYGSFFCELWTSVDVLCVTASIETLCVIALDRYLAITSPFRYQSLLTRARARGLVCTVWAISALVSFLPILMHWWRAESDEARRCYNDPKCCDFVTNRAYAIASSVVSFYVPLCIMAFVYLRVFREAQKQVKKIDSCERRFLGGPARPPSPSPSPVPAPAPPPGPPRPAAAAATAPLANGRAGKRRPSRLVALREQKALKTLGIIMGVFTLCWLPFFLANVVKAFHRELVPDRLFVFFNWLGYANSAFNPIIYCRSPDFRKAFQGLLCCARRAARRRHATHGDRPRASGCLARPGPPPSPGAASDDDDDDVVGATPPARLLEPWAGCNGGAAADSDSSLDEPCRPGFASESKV
Sodium-dependent dopamine transporter, sequence (Q01959 whole entry): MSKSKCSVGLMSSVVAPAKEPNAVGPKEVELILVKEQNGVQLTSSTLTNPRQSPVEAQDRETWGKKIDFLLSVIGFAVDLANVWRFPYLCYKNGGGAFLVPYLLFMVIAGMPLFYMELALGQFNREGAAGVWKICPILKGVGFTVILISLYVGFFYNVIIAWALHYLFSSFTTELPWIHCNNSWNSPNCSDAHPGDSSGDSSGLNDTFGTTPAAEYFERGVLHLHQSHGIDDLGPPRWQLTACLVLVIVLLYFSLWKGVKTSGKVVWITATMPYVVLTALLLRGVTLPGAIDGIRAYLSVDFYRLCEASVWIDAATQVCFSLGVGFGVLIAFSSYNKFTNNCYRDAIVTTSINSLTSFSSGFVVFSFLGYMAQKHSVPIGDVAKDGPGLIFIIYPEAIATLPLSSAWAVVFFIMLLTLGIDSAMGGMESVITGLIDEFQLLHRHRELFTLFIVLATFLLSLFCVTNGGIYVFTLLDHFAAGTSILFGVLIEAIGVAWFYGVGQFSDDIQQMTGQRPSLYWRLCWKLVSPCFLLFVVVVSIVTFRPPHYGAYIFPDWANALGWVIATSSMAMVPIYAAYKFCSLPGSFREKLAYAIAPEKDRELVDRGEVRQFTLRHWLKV
Beta-2 adrenergic receptor, sequence (P07550 whole entry): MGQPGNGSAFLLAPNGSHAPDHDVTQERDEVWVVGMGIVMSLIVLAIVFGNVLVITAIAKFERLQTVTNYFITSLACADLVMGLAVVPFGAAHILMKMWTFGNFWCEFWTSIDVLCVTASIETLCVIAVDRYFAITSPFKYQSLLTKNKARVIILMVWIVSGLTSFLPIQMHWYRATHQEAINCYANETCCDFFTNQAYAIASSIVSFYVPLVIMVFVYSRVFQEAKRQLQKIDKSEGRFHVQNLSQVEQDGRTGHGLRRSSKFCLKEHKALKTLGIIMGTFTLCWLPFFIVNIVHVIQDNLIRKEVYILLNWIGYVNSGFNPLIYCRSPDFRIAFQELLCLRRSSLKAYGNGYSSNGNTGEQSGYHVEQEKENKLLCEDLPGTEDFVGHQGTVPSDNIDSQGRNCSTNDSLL

SMILES | AC50 [1] | AC50 [2] | AC50 [3] | AC50 [4] | AC50 [5] | AC50 [6] | AC50 [7] | AC50 [8]
CC(=N)N1CC[C@H](SC2=C(C(=O)O)N3C(=O)[C@H]([C@@H](C)O)[C@H]3C2)C1 | > 300 µM | > 300 µM | 270 µM | 230 µM | 60 µM | > 300 µM | > 300 µM | > 300 µM
CC(/C=C1\SC(=S)N(CC(=O)O)C1=O)=C\c1ccccc1 | > 30 µM | > 30 µM | 20 µM | 26 µM | 15 µM | 1.5 µM | > 30 µM | > 30 µM
O=C1CN2Cc3c(ccc(Cl)c3Cl)N=C2N1 [ANAGRELIDE] | > 10 µM | > 10 µM | > 30 µM | > 10 µM | > 30 µM | > 30 µM | > 30 µM | > 30 µM
CCc1oc2ccccc2c1C(=O)c1cc(Br)c(O)c(Br)c1 [BENZBROMARONE] | > 30 µM | 3.74 µM | 26 µM | 29 µM | > 30 µM | 16 µM | > 30 µM | > 30 µM
C=C(C)[C@@H]1CCC(C)=C[C@H]1c1c(O)cc(CCCCC)cc1O [CANNABIDIOL] | > 30 µM | > 10 µM | 28 µM | > 30 µM | > 30 µM | > 30 µM | > 10 µM | > 30 µM
CO/N=C(\C(=O)N[C@@H]1C(=O)N2C(C(=O)O)=C(COC(N)=O)CS[C@H]12)c1ccco1 [CEFUROXIME] | > 30 µM | > 30 µM | > 30 µM | > 30 µM | > 30 µM | > 30 µM | > 30 µM | > 30 µM
[H]/N=C(\N/C(=N/[H])NCCCCCCNC(=N)NC(=N)Nc1ccc(Cl)cc1)Nc1ccc(Cl)cc1 [CHLORHEXIDINE] | > 10 µM | 4.34 µM | 3 µM | 1.4 µM | > 30 µM | > 10 µM | > 30 µM | > 30 µM
CC1(C)O[C@@H]2C[C@H]3[C@@H]4C[C@H](F)C5=CC(=O)C=C[C@]5(C)[C@H]4[C@@H](O)C[C@]3(C)[C@]2(C(=O)CO)O1 [FLUNISOLIDE] | > 30 µM | 2 µM | > 30 µM | > 30 µM | > 30 µM | > 30 µM | > 30 µM | > 30 µM
Nc1nc(O)c2ncn(COC(CO)CO)c2n1 [GANCICLOVIR] | > 30 µM | > 30 µM | > 30 µM | > 30 µM | > 30 µM | > 30 µM | > 30 µM | > 30 µM
C[C@H]1Oc2cc(cnc2N)-c2c(nn(C)c2C#N)CN(C)C(=O)c2ccc(F)cc21 [LORLATINIB] | > 30 µM | > 30 µM | > 30 µM | > 30 µM | > 30 µM | > 30 µM | > 30 µM | > 30 µM
Cc1cnc(NC(=O)C2=C(O)c3ccccc3S(=O)(=O)N2C)s1 [MELOXICAM] | > 10 µM | > 10 µM | > 10 µM | > 10 µM | > 30 µM | > 30 µM | > 10 µM | > 30 µM
COc1ccnc(C[S+]([O-])c2nc3ccc(OC(F)F)cc3[nH]2)c1OC (configuration not stated) [PANTOPRAZOLE] | > 10 µM | > 10 µM | > 10 µM | > 10 µM | > 30 µM | > 30 µM | > 10 µM | > 30 µM
O=C1NC(=O)C(c2ccccc2)(c2ccccc2)N1 [PHENYTOIN] | > 30 µM | > 30 µM | > 30 µM | > 30 µM | > 30 µM | > 30 µM | > 30 µM | > 30 µM
CC(C)C[C@H](CN)CC(=O)O [PREGABALIN] | > 30 µM | > 30 µM | > 30 µM | > 30 µM | > 30 µM | > 30 µM | > 30 µM | > 30 µM
CCOc1cc(CC(=O)N[C@@H](CC(C)C)c2ccccc2N2CCCCC2)ccc1C(=O)O [REPAGLINIDE] | > 30 µM | > 30 µM | > 30 µM | > 30 µM | > 30 µM | > 30 µM | > 30 µM | > 30 µM
CCCN(CCC)CCc1cccc2c1CC(=O)N2 [ROPINIROLE] | > 30 µM | 12 µM | > 30 µM | > 30 µM | > 30 µM | > 30 µM | > 30 µM | > 30 µM
CCCN(CCc1cccs1)[C@H]1CCc2c(O)cccc2C1 [ROTIGOTINE] | > 30 µM | > 10 µM | 1.3 µM | > 30 µM | 29 µM | > 30 µM | > 10 µM | > 30 µM
CC[C@H]1OC(=O)[C@H](C)[C@@H](O[C@H]2C[C@@](C)(OC)[C@@H](O)[C@H](C)O2)[C@H](C)[C@@H](O[C@@H]2O[C@H](C)C[C@H](N(C)C)[C@H]2O)[C@](C)(O)C[C@@H](C)/C(=N\OCOCCOC)[C@H](C)[C@@H](O)[C@]1(C)O [ROXITHROMYCIN] | > 30 µM | > 30 µM | > 30 µM | > 30 µM | > 30 µM | > 30 µM | > 30 µM | > 30 µM
CC(C)N(CCCCOCC(=O)NS(C)(=O)=O)c1cnc(-c2ccccc2)c(-c2ccccc2)n1 [SELEXIPAG] | > 30 µM | > 30 µM | > 30 µM | > 30 µM | > 30 µM | – | > 30 µM | > 30 µM
CC(=O)S[C@@H]1CC2=CC(=O)CC[C@]2(C)[C@H]2CC[C@@]3(C)[C@@H](CC[C@@]34CCC(=O)O4)[C@H]12 [SPIRONOLACTONE] | > 30 µM | > 30 µM | > 30 µM | > 30 µM | > 30 µM | > 30 µM | > 30 µM | > 30 µM
Cn1c(=O)c2[nH]cnc2n(C)c1=O [THEOPHYLLINE] | > 10 µM | > 10 µM | > 30 µM | > 10 µM | > 30 µM | > 30 µM | > 10 µM | > 30 µM
